One series relates to RasGRF1. As to the kind of experiment: Western blot analysis of RasGRF1 expression. The series is classed as cell-based, human. The conditions noted are these: differentiated SH-SY5Y cells; for increase in RasGRF1 expression compared to untreated cells: 5 μM, 24 h, normalized to β-tubulin. Here is the method: Western Blot Analysis of Ras-GRF1 Expression in SH-SY5Y Cells Exposed to BAMs 1-3 or BTA-EG6. Differentiation of SH-SY5Y cells was performed according to a previously described procedure. Briefly, cells were differentiated for 8 days by the addition of 10 μM all-trans-retinoic acid (RA) in the cell culture medium (1:1 EMEM and Ham's F12 supplemented with 10% FBS). Media with RA was changed every 2 days. After 8 days, the media was removed and new, RA-free media containing the sample solutions was added. Cells were exposed to solutions containing a final concentration of the BTA-E6 and BAMs (0, 1, or 5 μM) for 24 hours at 37° C. Cells were than lysed with NP-40 buffer with protease inhibitor (Roche, ref #05892791001) and protein concentration was determined by BCA assay (Pierce BCA Assay Kit, #23225). Proteins were separated by SDS-PAGE (NUPAGE® 4-12% Bis-Tris gel, NUPAGE® MES SDS running buffer) followed by transfer onto nitrocellulose membrane (NOVEX®, LC2000). Membranes were blocked with 3% BSA in Tris-Buffered Saline with Tween 20 (TBST) for 1 h followed by incubation with primary antibodies in 3% BSA/TBST [mouse anti-RasGRF1 (BD 610149) and mouse anti-tubulin-β (Thermo MS1226-P)] overnight at 4° C. with shaking. Membranes were then washed with TBST (3×10 min) and then incubated with a TRITC labeled goat anti-mouse antibody (JAX 115-025-003) for 1 h at RT with shaking. After 1 h, the membranes were washed with TBST (6×5 min) and the proteins were visualized using a Typhoon 8600 variable mode imager (GE Healthcare). The density of each band was then quantified using ImageJ software as a percentage of control following normalization to β-tubulin.
A general note: A western blot detects proteins with antibodies after separation by electrophoresis.

For series [1], the system named is rat primary hippocampal neurons. As to the kind of experiment: Dendritic spine density and morphology in primary hippocampal neurons. The series is classed as cell-based. The conditions noted are these: 24 h exposure, versus vehicle control (0.1% DMSO). Here is the method: Neuronal Cultures. Rat dissociated hippocampal neurons from postnatal day 1 were plated at a density of 45,000 cells/cm^2 onto poly-D-lysine-coated coverslips. Neurons were maintained in B27 supplemented Neurobasal media (Invitrogen) until days in vitro (DIV) 18-23 as previously described.
Neuronal Treatments. For all neuronal treatments the following general protocol was followed: Briefly, 18-23 DIV rat dissociated hippocampal neurons were dosed with various concentrations (0-50 μM final concentration) of BAMs 1-3 or BTA-EGx (with 0.1% final DMSO concentration) for various times (24-72 h depending on the experiment). After dosing and at the desired time point, the media was removed and cells were rinsed with PBS-MC (phosphate-buffered saline, 1 mM MgCl2 and 0.1 mM CaCl2). Following rinsing, cells were fixed with 4% paraformaldehyde (PFA)/sucrose in PBS for 10 min at RT. […]
Confocal Microscopy and Dendritic Spine Analysis. […] Imaged dendrites were straightened using ImageJ, and spine density was the number of manually counted spines divided by dendrite segment length. The analyzer was blind to treatment and statistical significance was determined between experimental conditions by either unpaired t tests (two groups) or by ANOVA and indicated post hoc multiple-comparison test (>2 experimental conditions).

The conditions of series [2]: previously reported [18,19], cited from earlier work.
For series [3], the system named is human iPSC-derived neurons. As to the kind of experiment: Spine density of PSD95 puncta in 3-month differentiated NSC. The conditions noted are these: 5 μM, control DMSO (0.1%). The series is classed as cell-based. Here is the method:
FIG. 10. Quantification of spine density of PSD95 puncta from 3-month differentiated NSC treated with compound or vehicle control The figure depicts neuron micrographs with staining for MAP2, PSD95 and composite under control and compound administration conditions. “Compound” refers to BAM3-EG6 (5 μM), as depicted in FIG. 1. “Control” refers to DMSO (0.1%). MAP2 is a marker for dendrites, and PSD95 is a marker for post-synaptic features. A histogram (below) depicts normalized PSD95 puncta under control and compound administration conditions. It is observed that […] increases spine density by about 50% compared to control in human iPSC-derived neurons.
FIG. 10 depicts quantification of spine density of PSD95 puncta from 3-month differentiated NSC treated with compound or vehicle control. It is observed that BTA-EG4 analog (e.g., those depicted in FIG. 1) increases spine density by about 50% compared to control in human iPSC-derived neurons.

Series [4] has as its system rat primary hippocampal neurons. In words: Rescue of Aβ-induced spine loss. The series is classed as cell-based. The conditions noted are these: 1 μM Aβ (1-42) plus 1 or 5 μM compound, 3 days.
Series [5] is described as follows: Fluorescence emission spectra in water, octanol and aqueous liposome suspension (membrane partitioning). The series is classed as physicochemical. The note with it: 50 μM compound, DiPhyPC liposomes. Here is the method: Measurement of Fluorescence Emission Spectra. The emission spectra of benzothiazoles in different environments was evaluated as previously described. Briefly, BAMs 1-3 and BTA-EG6 were diluted to a final concentration of 50 μM in deionized H2O, pure octanol, and a liposome suspension. The liposomes were prepared from a total lipid concentration of 10 mM of DiPhyPC in water by the gentle dehydration rehydration method followed by tip sonication. 200 μL of each sample was transferred to a cuvette (Hellma® Analytics, Quartz […]® (QS), 10 mm) and the fluorescence emission spectrum was measured in a PTI spectrofluorometer (0.5 nm step size) in water, octanol and an aqueous liposome suspension for BAMs 1-3 and BTA-EG6. Maximal excitation and emission values (λmax) for all compounds were as follows: BTA-EG6 (Ex/Em 355/420 nm), BAM1-EG6 (Ex/Em 355/420 nm), BAM2-EG6, (Ex/Em 365/428 nm), and BAM3-EG6 (Ex/Em 335/398 nm). Each experiment was repeated at least three separate times and error bars denote standard deviation from the mean. Data was processed using ORIGIN® 7.0 (MicroCal Software, Inc., Northampton, Mass.).

In series [6] the test system is SH-SY5Y human neuroblastoma cells. In words: MTT cell viability assay. The series is classed as cell-based. The conditions noted are these: 24 h exposure, read-out: IC50 of toxicity. Here is the method:
Measurement of Cell Viability in the Presence of BAMs 1-3 and BTA-EG6. An MTT cell viability assay was performed as previously described. Briefly, SH-SY5Y cells were plated in a 96 well plate at a density of 50,000 cells/well in 100 μL of 1:1 Eagle's Minimum Essential Medium (EMEM) and Ham's F12, supplemented with 10% Fetal Bovine Serum (FBS). Cells were allowed to adhere overnight (37° C., 5% CO2) before dosing with 100 μL of various samples solutions of either BTA-EG6 or BAMs 1-3 with final concentrations (0-250 Cells were exposed to these solutions for 24 h at 37° C., 5% CO2. An MTT cell viability kit (ATCC, Product No: 30-1010K) was then used to determine cell viability. Briefly, 20 μL of the provided MTT reagent was added per well and cells were placed in the incubator for 3 h. The insoluble intracellular purple formazan was then dissolved by the addition of 100 μL of detergent reagent provided and let solubilize overnight at room temperature. The cell viability was determined by measuring the absorbance at 570 nm using a SPECTRAMAX® 190 microplate reader (Molecular Devices). All results are presented as percent reduction of MTT relative to untreated cells (100% viability), and all wells were blanked with absorbance values from the wells containing media, MTT reagent and detergent only.
(In general: Tetrazolium assays rely on reduction of a dye to a coloured formazan, in cell work by metabolically active cells.)

Series [7] deals with rat primary hippocampal neurons. The note with it: previously reported study [40]; cited from earlier work.

SMILES strings stand for the structures.

With `Cc1ccc2nc(-c3ccc(NCCOCCOCCOCCO)cc3)sc2c1` [BTA-EG4], the “increase in RasGRF1 expression compared to untreated cells” value (“increase in RasGRF1 expression” below) in the series on RasGRF1 stood at 20%. Moreover, in the series with RasGRF1 (1 or 5 μM / increasing concentrations), the “effect on RasGRF1 expression levels (in words)” value is listed as “dose-dependent increase in RasGRF1 levels”. Besides, in series [1], the “effect on dendritic spine density (in words)” value is given as “observed increase in dendritic spine density over the vehicle control”. In addition, the “dendritic spine density in vivo” value in series [2] (mice) was “phenotypic increase in dendritic spine density”. Besides, in series [2] (wild-type mice and mouse model for AD), the “memory and learning in cognitive performance tests” value is “capability to improve memory and learning”. Besides, the “increase in spine density (PSD95 puncta) compared to control” value in series [3] was “about 50%”.
For orientation: IC50 means the point on the concentration scale where inhibition reaches its midpoint. With `Cc1ccc2nc(-c3ccc(NCCOCCOCCOCCOCCOCCO)cc3)sc2c1` [BTA-EG6], the “increase in RasGRF1 expression” value with RasGRF1 is listed as “approximately 20%”. In series [4], the “net increase in dendritic spine density compared to control” value is roughly 20% and the “spine density higher than in cells treated with Aβ (1-42) alone” value was roughly 50%. The “change of emission max (λmax) in aqueous liposome suspension from water, relative to λmax in pure octanol” value in series [5] is listed as 50%. In series [6], the IC50 was found to be 90 µM.
As to `C[C@]12CC[C@@H]3c4ccc(O)cc4CC[C@H]3[C@@H]1CC[C@@H]2O` [17β-estradiol], the “time required to induce maximal increase in spine density” value in series [7] was 96 h.
Take `OCCOCCOCCOCCOCCOCCSc1ccc(-c2nc3ccccc3s2)cc1` [BAM3-EG6, 17-((4-(benzo[d]thiazol-2-yl)phenyl)thio)-3,6,9,12,15-pentaoxaheptadecan-1-ol]: the “increase in RasGRF1 expression” value in the series with RasGRF1 is on record as 70%.

The record behind these values is US10675273B2, “Benzothiazole amphiphiles” (The Regents of the University of California, priority 2016, dated 2020).
